The values that follow come from patent US4533553A, “Polycyclic ether antibiotic” (priority 1983, dated 1985).

The subject of experiment [1] is Bacillus subtilis. Briefly: in vitro MIC test. It counts as cell-based. The note with it: strain 06A001, 24 hours. On the procedure: (§1) In Table I, below, the results of in vitro MIC tests are summarized. For this test each organism is inoculated in a series of test tubes containing nutrient medium and varying concentrations of Compound 53,607 to determine the minimal concentration of the antibiotic in mcg/ml which inhibits the growth of the organism over a period of 24 hours (MIC).

For experiment [2], the system named is Bacteroides fragilis. Briefly: in vitro MIC test. It counts as cell-based. Particulars: 24 h. The procedure: as §1
The test system of experiment [3] is Bacteroides vulgatis. Description: in vitro MIC test. The experiment is classed as cell-based. The note with it: strain 78E032, 24 hours. The procedure: as §1
Experiment [4] relates to Corynebacterium pyogenes. Briefly: in vitro MIC test. The experiment is classed as cell-based. The note with it: Rhodococcus (subgen. Prescottella) equi; strain 11D001, 24 hours. On the procedure:
as §1

Experiment [5] deals with Fusobacterium necrophorum. Description: in vitro MIC test. It counts as cell-based. The note with it: strain 84C004, 24 hours. On the procedure:
as §1

The test system of experiment [6] is Haemophilus influenza. Description: in vitro MIC test. It counts as cell-based. The note with it: 24 h. The procedure:
as §1

Experiment [7] concerns Neisseria sicca. Briefly: in vitro MIC test. The experiment is classed as cell-based. Particulars: strain 66C000, 24 hours. On the procedure:
as §1

Experiment [8] deals with Pasteurella multocida. Description: in vitro MIC test. It counts as cell-based. Particulars: strain 59A001, 24 hours. The procedure: as §1
The subject of experiment [9] is Staphylococcus aureus. Description: in vitro MIC test. It counts as cell-based. The note with it: 24 h. On the procedure:
as §1

In experiment [10] the test system is Staphylococcus epidermidis. Briefly: in vitro MIC test. The experiment is classed as cell-based. Particulars: 24 h. On the procedure:
as §1

The test system of experiment [11] is Streptococcus faecalis. Description: in vitro MIC test. The experiment is classed as cell-based. Particulars: Enterococcus faecalis; strain 02A006, 24 hours. On the procedure:
as §1

For experiment [12], the system named is Streptococcus pyogenes. Description: in vitro MIC test. The note with it: 24 h. The experiment is classed as cell-based. On the procedure:
as §1

In experiment [13] the test system is Treponema hyodysenteriae. Briefly: in vitro MIC test. The experiment is classed as cell-based. Particulars: Brachyspira hyodysenteriae, 24 h. The procedure:
as §1

The test system of experiment [14] is Clostridium perfringens. Description: microbe, parasite or virus in culture. It counts as cell-based.
Experiment [15] has as its system rumen fluid. Description: in vitro rumen technique, propionic acid production. The arrangement: species or system cow. On the procedure:
The value of animal feeds generally has been determined directly by feeding the animal. British Patent Specification No. 1,197,826 details an in vitro rumen technique whereby the changes occurring in feeds brought about by microorganisms are measured more readily and with great accuracy in the evaluation of animal feeds. This technique involves the use of an apparatus in which the digestive processes of the animals are conducted and studied in vitro. The animal feeds, rumen inoculum and various growth promotants are introduced into and withdrawn from a laboratory unit under carefully controlled conditions and the changes taken place are studied critically and progressively during the consumption of the feed by the microorganisms. […] The change in propionic acid content is expressed as percent of the propionic acid content found in the control rumen fluid. Long term in vivo feeding studies are used to show a reliable correlation between propionic acid increase in the rumen fluid and improved animal performance.
Rumen fluid is collected from a fistulated cow which is fed on a commercial fattening ration plus hay. The rumen fluid is immediately filtered through cheese cloth, and 10 ml added to a 50 ml conical flask containing 400 mg. of standard substrate (68% corn starch+17% cellulose+15% extracted soybean meal), 10 ml. of a pH 6.8 buffer and the test compound. The flasks are gassed with oxygen free nitrogen for about two minutes, and incubated in a shaking water bath at 39° C. for about 16 hours. All tests are conducted in triplicate.
After incubation, 5 ml. of the sample is mixed with 1 ml. of 25% metaphosphoric acid. After 10 minutes 0.25 ml. of formic acid is added and the mixture centrifuged at 1,500 r.p.m. for 10 minutes. Samples are then analyzed by gas-liquid chromatograhy by the method of D. W. Kellog, J. Dairy Science, 52, 1690 (1969). Peak heights for acetic, propionic and butyric acids are determined for samples from untreated and treated incubation flasks.

Where a name gives a salt, the structure may show the parent alone.

Take `CC(=CC(C)C1OC2(CCC(C)(C3CCC(C)C4(OC(C5OC(O)(CO)C(C)CC5C)CC4C)O3)O2)CC(O)C1C)C(=O)C(C)CC(C)C(=O)O` (stereo not drawn) [53,607 (sodium salt)]: the MIC in experiment [1] was found to be 0.39 µg/mL; in [2] (strain 78C004, 24 hours), 12.5 µg/mL; in experiment [2] (strain 78C009, 24 hours), 6.25 µg/mL; in experiment [2] (strain 78C010, 24 hours), 6.25 µg/mL; in [3], 3.12 µg/mL; in experiment [4] it was 25 µg/mL. Further, the MIC in experiment [5] was 3.12 µg/mL; in [6] (strain 54A036, 24 hours), 6.25 µg/mL; in [6] (strain 54A037, 24 hours), 3.12 µg/mL; in experiment [6] (strain 54A059, 24 hours), 12.5 µg/mL; in experiment [7], 25 µg/mL; in experiment [8], over 200 µg/mL. Also, the MIC in experiment [9] (strain 01A005, 24 hours) was found to be 0.78 µg/mL; in [9] (strain 01A052, 24 hours), 0.78 µg/mL; in experiment [9] (strain 01A110, 24 hours), 1.56 µg/mL; in experiment [9] (strain 01A400, 24 hours), 1.56 µg/mL; in experiment [10] (strain 01B087R), 0.78 µg/mL; in experiment [10] (strain 01B111RR) it was 0.78 µg/mL. The MIC in experiment [10] (strain 01B126, 24 hours) was 1.56 µg/mL; in experiment [11] it was 1.56 µg/mL; in [12], under 0.01 µg/mL; in experiment [13] (strain 94A001, 24 hours), 0.39 µg/mL; in [13] (strain 94A002, 24 hours), 0.098 µg/mL; in experiment [14] (Clostridium perfringens, 24 h), 0.98 µg/mL. Also, the MIC in experiment [14] (strain 10A003, 24 hours) was found to be 0.98 µg/mL.
Regarding `CC[C@@]1([C@@H]2O[C@@H]([C@H]3O[C@@](O)(CO)[C@H](C)C[C@@H]3C)C[C@@H]2C)CC[C@H]([C@]2(C)CC[C@]3(C[C@H](O)[C@@H](C)[C@@H]([C@@H](C)[C@@H](OC)[C@H](C)C(=O)O)O3)O2)O1` [Monensin, reference compound], the “increase of propionic acid over the control” value in experiment [15] (10 μg./ml.) is “about 20%”.
As for `CC[C@@H](C(=O)[C@@H](C)[C@@H](O)[C@H](C)[C@@H]1O[C@@H]([C@@H](CC)C(=O)O)CC[C@@H]1C)[C@H]1O[C@]2(C=C[C@@H](O)[C@]3(CC[C@@](C)([C@H]4CC[C@](O)(CC)[C@H](C)O4)O3)O2)[C@H](C)C[C@@H]1C` [Salinomycin, reference compound], in experiment [15] (5 μg./ml., comparison with Salinomycin), the “increase in propionic acid” value was “about 52%”.
